Experimental data as given in PubChem BioAssay AID463204 (Broad Institute, 2010).
The source made the active and inactive calls.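 Rule for the calls: active = AC50 no more than ten times the top concentration tested, that is within one log above it; inconclusive = flat curve fit with activity between 30% and 70%, or invalid poor fit; inactive = AC50 beyond ten times the top tested dose.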

System: S. cerevisiae Mot1-301 ts growth rescue, BacTiter-Glo ATP luminescence
Test: restored Mot1-301 yeast growth at 38.5C – whole organism, S. cerevisiae, Mot1-301 ts mutant, luminescence, dose retest, SUMOylation pathway inhibitor project, confirmation (AID 463204);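 note: growth at restrictive 38.5 degrees C of Mot1-301 OY566 strain; actives raise luminescence by restoring growth of the ts mutant at high temperature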

CCOC(=O)c1oc2ccccc2c1COC(=O)CNC(=O)c1cccc(C)c1
AC50: > 42 µM (inactive)

CCC(=O)Nc1ccc(Br)c(Cl)c1
AC50: > 42 µM (inactive)

COc1ccc(C(=O)OCC(=O)c2ccc(C)c(S(=O)(=O)N3CCOCC3)c2)cc1OC
AC50: > 42 µM (inactive)

Cc1ccc2nc(SCC(=O)Nc3cccc(S(N)(=O)=O)c3)[nH]c2c1
AC50: > 42 µM (inactive)

COc1ccccc1CNC(=O)CN(c1ccc(C)cc1)S(=O)(=O)c1c(C)n[nH]c1C
AC50: > 110 µM (inactive)

COc1ccc(N2C(=O)CCC(C(=O)NCc3cccnc3)C2c2ccc(OC)c(OC)c2)cc1 (stereo unspecified)
AC50: > 42 µM (inactive)

CN(C=O)CP(=O)(O)CN(C)C=O
AC50: > 42 µM (inactive)

COc1ccc(/C=N\Nc2ccc([N+](=O)[O-])cc2)c(C(=O)O)c1OC
AC50: > 42 µM (inactive)

OC1CN=C2CCCc3c2n(c2ccc(Cl)cc32)C1 (stereo unspecified)
AC50: > 42 µM (inactive)

CSc1cc(C)c(OCC(=O)Nc2c(C)nn(C)c2C)c(C)c1
AC50: > 42 µM (inactive)

Cn1c(CSc2nc3ccccc3s2)nnc1SCC(=O)NCCN1CCOCC1
AC50: > 42 µM (inactive)

CN(c1ccccc1C(=O)N1CCN(Cc2ccc3c(c2)OCO3)CC1)S(C)(=O)=O
AC50: > 42 µM (inactive)

COc1ccc(-c2nc(C#N)c(NC(C)c3ccccc3)o2)cc1OC (stereo unspecified)
AC50: > 42 µM (inactive)

CCn1nccc1C(=O)Nc1nccs1
AC50: > 42 µM (inactive)

COC(=O)c1cn(C(=O)c2cccc3ccccc23)c2ccccc12
AC50: > 42 µM (inactive)

CCCCC(=O)Nc1cc(OC)c(NC(=O)C2CCCCC2)cc1OC
AC50: > 42 µM (inactive)

C=C(C)Cn1c(N)cc(=O)nc1SCC(=O)Nc1cccc(C(F)(F)F)c1
AC50: > 42 µM (inactive)

Cc1ccc(CC(=O)O/N=C(\N)c2cccc([N+](=O)[O-])c2)cc1
AC50: > 42 µM (inactive)

CC(=O)C(C(c1ccccc1)c1c[nH]c2ccccc12)[N+](=O)[O-] (stereo unspecified)
AC50: 33 µM

Cc1cc(C)cc(N(CC(=O)Nc2cccc(C)n2)S(=O)(=O)c2c(C)noc2C)c1
AC50: > 42 µM (inactive)

O=C(NCc1ccccc1Cl)c1ccc2c(c1)OCO2
AC50: 30.4 µM

CCOC(=O)N1CCN(c2nnnn2-c2ccccc2)CC1
AC50: > 42 µM (inactive)

Cc1nnc(SCC(=O)NCc2ccccc2Cl)[nH]c1=O
AC50: > 42 µM (inactive)

COC(=O)[C@@H](NC(=O)Nc1ccc(S(N)(=O)=O)cc1)C(C)C
AC50: > 42 µM (inactive)

Cc1ccc(C)c(-n2nnnc2SCC(=O)Nc2c(C)n(C)n(-c3ccccc3)c2=O)c1
AC50: > 42 µM (inactive)

CCn1c(C)c(C(C)=O)c(N2CCN(c3ccc(F)cc3)CC2)nc1=S
AC50: > 42 µM (inactive)

COCC(C)n1c(-c2ccc3c(c2)NC(=O)CO3)csc1=Nc1ccc(OC(F)F)cc1 (stereo unspecified)
AC50: 25.2 µM

CCCCc1n[nH]c(=S)n1Cc1ccc(C)cc1
AC50: > 42 µM (inactive)

CC(C(=O)N1CCN(C(=O)c2ccco2)CC1)n1sc2ccccc2c1=O (stereo unspecified)
AC50: > 42 µM (inactive)

O=C1CCC(/C=C/c2ccccc2)=NN1Cc1ccc(Cl)c(Cl)c1
AC50: > 42 µM (inactive)

CC(C)C(OC(=O)CN1C(=O)COc2ccccc21)C(=O)NC1CCCC1 (stereo unspecified)
AC50: > 42 µM (inactive)

CN(C(=O)CSc1nnc(-c2cccc(F)c2)n1N)C1CCS(=O)(=O)C1 (stereo unspecified)
AC50: > 42 µM (inactive)

Cc1nn(C)c(C)c1/C=N/NC(=O)C(C)(C)Oc1ccc(Cl)cc1
AC50: > 42 µM (inactive)

COc1ccc(C(=O)NCC(=O)Nc2ccccc2)cc1OC
AC50: > 42 µM (inactive)

CCOC(=O)c1cc2c(ccn2-c2ccc(F)cc2)n1CC(=O)N1CCN(C(=O)c2ccco2)CC1
AC50: > 42 µM (inactive)

O=C(CCSc1nnnn1-c1ccccc1)N1CCOCC1
AC50: > 42 µM (inactive)

O=C(NNc1ccccc1)C(CCO)C(=O)NNc1ccccc1
AC50: > 42 µM (inactive)

COc1ccc2c(c1)[C@H]1[C@H](CO2)[C@H](c2ccccc2)[C@]2(C)C(=O)Nc3cc(F)ccc3C(=O)N12
AC50: 7.87 µM

COc1ccc(-n2nc(C(=O)NCC(=O)N3CCCC3)c3ccccc3c2=O)c(OC)c1
AC50: > 42 µM (inactive)

O=C(CC1(CC2=NS(=O)(=O)c3ccccc3N2)CCCC1)NCCc1ccccc1
AC50: > 42 µM (inactive)

O=C(O)C1CCCN1C(=O)c1cncc(Br)c1 (stereo unspecified)
AC50: > 42 µM (inactive)

O=C(NCc1csc(-c2cccs2)n1)Nc1ccc(F)cc1F
AC50: > 42 µM (inactive)

CCOc1ccc(C(=O)NCC2OCCc3ccccc32)cc1 (stereo unspecified)
AC50: > 42 µM (inactive)

COc1ccc(C2=NN(C(=S)Nc3ccccc3)C(c3ccccc3)C2)cc1 (stereo unspecified)
AC50: > 42 µM (inactive)

COc1ccc(C(=O)N/C(=C\c2cn(C)c3ccccc23)C(=O)OCCN(C)C)cc1
AC50: > 42 µM (inactive)

CCC(C)[C@H](NC(=O)Nc1ccc(S(N)(=O)=O)cc1)C(=O)OC (stereo partly specified)
AC50: > 42 µM (inactive)

COc1ccc(-c2nnc(-c3cc4c(ccc5ccccc54)oc3=O)o2)cc1
AC50: > 42 µM (inactive)

CCOC(=O)c1cnc2c(C)c(Cl)ccc2c1N1CCOCC1
AC50: > 42 µM (inactive)

COc1cccc(/C=C2/C(=O)NN(c3ccc(Br)cc3)C2=O)c1O
AC50: > 42 µM (inactive)

CC1CN(CCCOc2ccc([N+](=O)[O-])cc2)CC(C)O1 (stereo unspecified)
AC50: > 42 µM (inactive)

Cc1ccc(Cn2c(NCCc3ccccc3)nc3c2c(=O)n(C)c(=O)n3C)cc1
AC50: > 42 µM (inactive)

CCCn1c(N)cc(=O)n(CCC)c1=O
AC50: > 42 µM (inactive)

CC(C)CC(c1nnnn1C1CCCCC1)N1CCN(C(=O)c2ccco2)CC1 (stereo unspecified)
AC50: > 42 µM (inactive)

O=C(COC(=O)[C@@H]1CC(O)CN1S(=O)(=O)c1ccccc1[N+](=O)[O-])Nc1ccc2ccccc2c1 (stereo partly specified)
AC50: > 42 µM (inactive)

O=C(Nc1ccc2ccccc2c1)N1CCCN(CCOc2ccccc2)CC1
AC50: > 42 µM (inactive)

COc1ccc(-c2cc(=O)c3cc(O)ccc3o2)cc1
AC50: > 42 µM (inactive)

CN1/C(=C\C(=O)COC(=O)c2ccc([N+](=O)[O-])o2)C(C)(C)c2ccccc21
AC50: 13.6 µM

C/C(=N\N=C(/N)SC1CC(=O)N(c2cccc(Cl)c2)C1=O)c1cccs1 (stereo unspecified)
AC50: > 42 µM (inactive)

O=C(CCCC(=O)N/N=C/c1ccccc1C(=O)O)N/N=C/c1ccccc1C(=O)O
AC50: > 42 µM (inactive)

COCCn1c(C)cc(C(=O)CN2C(=O)NC3(CCCCCCC3)C2=O)c1C
AC50: > 42 µM (inactive)

Cc1ccccc1C(=O)NN(C)c1nc2ccccc2nc1C(F)(F)F
AC50: > 42 µM (inactive)

COc1ccc(S(=O)(=O)Nc2ccc(NC(C)=O)cc2)cc1OC
AC50: > 42 µM (inactive)

COc1ccccc1/C=C/C(=O)N1CCc2cc(OC)c(OC)cc2C1C (stereo unspecified)
AC50: > 42 µM (inactive)

Cc1c(C(=O)NC(=S)Nc2ccccc2N2CCCC2)cccc1[N+](=O)[O-]
AC50: > 42 µM (inactive)

COCCNCc1ccccc1
AC50: > 42 µM (inactive)

COC(=O)/C=C\C(=O)Nc1cccc([N+](=O)[O-])c1
AC50: 2.95 µM

COC(=O)C1C2C=CC3(CN(CCc4ccccc4)C(=O)C13)O2 (stereo unspecified)
AC50: > 21 µM (inactive)

Cc1cc(C)c[n+](-c2nc3ccccc3nc2[N-]S(=O)(=O)c2ccc(Br)s2)c1
AC50: > 42 µM (inactive)

CC(C(=O)NCCN1CCOCC1)(c1ccccc1)c1ccccc1
AC50: > 42 µM (inactive)

CCOc1ncccc1-c1nc(-c2cccs2)no1
AC50: > 42 µM (inactive)

CC(C)(CNC(=O)c1cccs1)CNC(=O)c1cccs1
AC50: > 42 µM (inactive)
